Assay type in all cases: cell-based
In one assay the target is T1, human TLR9 (Homo sapiens, UniProt Q9NR96).
T1 construct: host or cells: HEK-Blue cells (HEK293-derived reporter line)
T1 sequence (Q9NR96 26-1032): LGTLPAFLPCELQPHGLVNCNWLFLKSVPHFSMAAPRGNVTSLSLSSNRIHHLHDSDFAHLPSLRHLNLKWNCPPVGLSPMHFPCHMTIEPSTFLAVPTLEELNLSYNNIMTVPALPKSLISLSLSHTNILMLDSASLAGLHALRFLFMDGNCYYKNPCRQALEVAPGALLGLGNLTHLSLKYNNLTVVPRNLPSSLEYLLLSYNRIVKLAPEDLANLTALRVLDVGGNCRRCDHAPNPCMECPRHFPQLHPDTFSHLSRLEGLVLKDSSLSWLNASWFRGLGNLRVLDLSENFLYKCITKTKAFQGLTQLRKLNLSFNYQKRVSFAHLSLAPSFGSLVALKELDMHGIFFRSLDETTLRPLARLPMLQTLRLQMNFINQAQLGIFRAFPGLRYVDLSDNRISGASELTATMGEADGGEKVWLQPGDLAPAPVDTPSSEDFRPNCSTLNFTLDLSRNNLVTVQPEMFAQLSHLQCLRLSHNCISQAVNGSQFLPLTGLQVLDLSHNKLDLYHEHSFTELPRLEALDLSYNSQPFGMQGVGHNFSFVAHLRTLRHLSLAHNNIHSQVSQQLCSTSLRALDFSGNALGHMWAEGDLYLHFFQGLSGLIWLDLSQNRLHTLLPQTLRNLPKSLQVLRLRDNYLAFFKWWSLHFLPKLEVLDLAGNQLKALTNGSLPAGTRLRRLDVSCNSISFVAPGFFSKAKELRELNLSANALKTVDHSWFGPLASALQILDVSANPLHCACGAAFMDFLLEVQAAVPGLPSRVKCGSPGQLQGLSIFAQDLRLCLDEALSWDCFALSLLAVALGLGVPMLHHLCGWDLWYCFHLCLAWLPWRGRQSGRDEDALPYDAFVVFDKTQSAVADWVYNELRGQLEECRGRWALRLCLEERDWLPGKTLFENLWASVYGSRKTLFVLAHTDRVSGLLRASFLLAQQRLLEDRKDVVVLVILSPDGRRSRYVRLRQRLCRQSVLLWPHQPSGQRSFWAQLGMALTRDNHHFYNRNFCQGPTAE
Kind of assay: TLR9 inhibition reporter assay (HEK-Blue cells, secreted embryonic alkaline phosphatase reporter). A digest of the protocol:
(§1)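 Cells seeded at 15000 (TLR7), 20,000 (TLR8) or 25,000 (TLR9) per well; compound 0.05 nM–50 μM, 30 min RT pre-incubation. Agonists: gardiquimod 7.5 μM, R848 15.9 μM, ODN2006 5 nM respectively. 22 h, 37 °C; SEAP via HEK-Blue Detection; % inhibition vs agonist+DMSO and known-inhibitor wells.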
In general terms: A reporter such as luciferase makes a cellular process visible.

Another assay concerns the target T2, human TLR7 (Homo sapiens, UniProt Q9NYK1).
T2 construct: host or cells: HEK-Blue cells (HEK293-derived reporter line)
T2 sequence (Q9NYK1 27-1049): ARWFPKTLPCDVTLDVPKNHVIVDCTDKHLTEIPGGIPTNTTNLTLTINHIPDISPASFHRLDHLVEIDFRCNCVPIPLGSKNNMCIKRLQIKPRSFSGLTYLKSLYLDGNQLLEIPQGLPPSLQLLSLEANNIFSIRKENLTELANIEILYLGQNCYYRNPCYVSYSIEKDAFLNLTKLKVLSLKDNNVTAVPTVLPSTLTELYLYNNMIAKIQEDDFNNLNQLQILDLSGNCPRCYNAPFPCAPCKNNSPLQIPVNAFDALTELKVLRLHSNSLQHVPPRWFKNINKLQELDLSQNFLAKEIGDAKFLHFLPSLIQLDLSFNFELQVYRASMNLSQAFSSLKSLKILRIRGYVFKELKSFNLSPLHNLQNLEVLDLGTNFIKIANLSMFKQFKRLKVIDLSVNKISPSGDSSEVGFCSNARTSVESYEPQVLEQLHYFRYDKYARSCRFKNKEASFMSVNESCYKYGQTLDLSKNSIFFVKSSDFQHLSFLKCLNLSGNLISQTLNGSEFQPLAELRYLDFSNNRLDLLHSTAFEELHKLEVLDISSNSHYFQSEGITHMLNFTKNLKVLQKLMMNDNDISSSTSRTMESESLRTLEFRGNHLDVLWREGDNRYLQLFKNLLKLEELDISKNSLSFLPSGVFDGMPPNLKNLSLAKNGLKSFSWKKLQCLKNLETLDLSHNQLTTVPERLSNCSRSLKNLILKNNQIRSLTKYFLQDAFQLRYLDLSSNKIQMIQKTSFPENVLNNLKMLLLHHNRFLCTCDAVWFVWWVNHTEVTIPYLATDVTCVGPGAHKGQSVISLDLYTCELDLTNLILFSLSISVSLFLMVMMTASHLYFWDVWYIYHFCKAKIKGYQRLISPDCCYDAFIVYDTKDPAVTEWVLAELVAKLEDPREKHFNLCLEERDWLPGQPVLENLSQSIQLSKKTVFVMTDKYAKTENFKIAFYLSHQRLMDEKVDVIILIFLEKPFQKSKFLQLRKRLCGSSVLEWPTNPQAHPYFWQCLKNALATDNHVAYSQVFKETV
Briefly: TLR7 inhibition reporter assay (HEK-Blue cells, secreted embryonic alkaline phosphatase reporter). The following applies: HEK-Blue cells overexpressing human TLR7, stimulated with gardiquimod 7.5 μM; read-out: TLR 7 IC50. An outline of the steps:
as §1

The target in the next assay is T3, human TLR8 (Homo sapiens, UniProt Q9NR97).
T3 construct: host or cells: HEK-Blue cells (HEK293-derived reporter line)
T3 sequence (Q9NR97 27-1041): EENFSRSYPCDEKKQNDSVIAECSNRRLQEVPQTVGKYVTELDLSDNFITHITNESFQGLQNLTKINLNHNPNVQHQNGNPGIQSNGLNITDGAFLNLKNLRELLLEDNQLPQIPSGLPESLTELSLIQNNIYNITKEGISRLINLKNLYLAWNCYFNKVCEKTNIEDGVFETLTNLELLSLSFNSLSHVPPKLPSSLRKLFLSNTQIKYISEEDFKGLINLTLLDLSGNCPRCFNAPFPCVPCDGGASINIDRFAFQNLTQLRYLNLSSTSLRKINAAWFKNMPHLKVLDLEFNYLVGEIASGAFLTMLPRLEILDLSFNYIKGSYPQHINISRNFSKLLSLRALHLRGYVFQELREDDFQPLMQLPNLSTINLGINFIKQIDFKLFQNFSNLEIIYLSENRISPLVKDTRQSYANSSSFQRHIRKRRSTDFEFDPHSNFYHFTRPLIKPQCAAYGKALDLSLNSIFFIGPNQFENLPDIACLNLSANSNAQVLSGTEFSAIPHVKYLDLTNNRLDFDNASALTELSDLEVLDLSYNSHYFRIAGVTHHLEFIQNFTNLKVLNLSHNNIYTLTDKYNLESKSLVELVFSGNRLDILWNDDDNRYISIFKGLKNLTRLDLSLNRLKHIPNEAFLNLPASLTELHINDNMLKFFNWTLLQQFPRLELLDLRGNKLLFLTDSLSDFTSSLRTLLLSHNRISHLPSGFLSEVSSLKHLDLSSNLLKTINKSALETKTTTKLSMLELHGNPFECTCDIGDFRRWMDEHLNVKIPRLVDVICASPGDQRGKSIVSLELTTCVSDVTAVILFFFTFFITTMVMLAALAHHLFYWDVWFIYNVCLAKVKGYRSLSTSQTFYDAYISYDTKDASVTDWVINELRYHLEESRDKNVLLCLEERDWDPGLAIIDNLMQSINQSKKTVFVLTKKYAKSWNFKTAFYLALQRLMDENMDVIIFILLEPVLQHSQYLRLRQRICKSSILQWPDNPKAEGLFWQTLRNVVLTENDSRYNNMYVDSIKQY
Kind of assay: TLR8 inhibition reporter assay (HEK-Blue cells, secreted embryonic alkaline phosphatase reporter). The following applies: HEK-Blue cells overexpressing human TLR8, stimulated with R848 15.9 μM; read-out: TLR 8 IC50. An outline of the steps:
as §1

[1] abbreviates: HEK-Blue cells overexpressing human TLR9, stimulated with ODN2006 5 nM, read-out: TLR 9 IC50.

The record followed here is patent publication US12492188B2, “1H-benzo[D]imidazole derivatives as TLR9 inhibitors for the treatment of fibrosis” (BRISTOL-MYERS SQUIBB COMPANY, priority 2020, dated 2025).

Like-named read-outs stand apart in the source and are kept apart here. Some results are limits rather than exact numbers.

What is called IC50 is the concentration at which inhibition is half-maximal. Consider `Cn1c(-c2ccc(S(C)(=O)=O)cc2)nc2c(F)c(C3CCN(C4CC5CCC(C4)N5CC4COC4)CC3)ccc21` (single isomer, unassigned) [Example 194, 4-fluoro-1-methyl-2-(4-(methylsulfonyl)phenyl)-5-(1-(8-(oxetan-3-ylmethyl)-8-azabicyclo[3.2.1]octan-3-yl)piperidin-4-yl)-1H-benzo[d]imidazole], for which the IC50 against human TLR9 was 630 nM; at human TLR9 (setting [1]), 631 nM; at human TLR7 it was 45600 nM; on human TLR8, more than 50000 nM.
For `COCCN1C2CCC1CC(N1CCC(c3ccc4c(nc(-c5ccc(S(C)(=O)=O)cc5)n4C)c3F)CC1)C2` (single isomer, unassigned) [Example 199, 4-fluoro-5-(1-(8-(2-methoxyethyl)-8-azabicyclo[3.2.1]octan-3-yl)piperidin-4-yl)-1-methyl-2-(4-(methylsulfonyl)phenyl)-1H-benzo[d]imidazole], in that order: 75 nM, 75 nM, 25600 nM and more than 50000 nM.
For `COCCN1C2CCC1CC(N1CCC(c3ccc4c(nc(-c5ccc(S(C)(=O)=O)cc5)n4C)c3F)CC1)C2` (single isomer, unassigned) [Example 200, 4-fluoro-5-(1-(8-(2-methoxyethyl)-8-azabicyclo[3.2.1]octan-3-yl)piperidin-4-yl)-1-methyl-2-(4-(methylsulfonyl)phenyl)-1H-benzo[d]imidazole], in that order: 380 nM, 380 nM, 47800 nM and more than 50000 nM.
As to `Cn1c(-c2ccc(S(C)(=O)=O)cc2)nc2cc(C3CCN(C4CC5CCC(C4)N5C4COC4)CC3)cc(F)c21` (single isomer, unassigned) [Example 213, 7-fluoro-1-methyl-2-(4-(methylsulfonyl)phenyl)-5-(1-(8-(oxetan-3-yl)-8-azabicyclo[3.2.1]octan-3-yl)piperidin-4-yl)-1H-benzo[d]imidazole], the IC50 on human TLR9 was 340 nM; at human TLR9 (setting [1]) it was 335 nM; on human TLR7, more than 50000 nM; on human TLR8, more than 50000 nM.
For the compound `Cn1c(-c2ccc(S(C)(=O)=O)cc2)nc2cc(C3CCN(C4CC5CCC(C4)N5C4COC4)CC3)cc(F)c21` (single isomer, unassigned) [Example 214, 7-fluoro-1-methyl-2-(4-(methylsulfonyl)phenyl)-5-(1-(8-(oxetan-3-yl)-8-azabicyclo[3.2.1]octan-3-yl)piperidin-4-yl)-1H-benzo[d]imidazole], the half-maximal inhibitory concentration (IC50) was 4700 nM on human TLR9, 4660 nM at human TLR9 (setting [1]), more than 50000 nM at human TLR7 and more than 50000 nM on human TLR8.
Consider `Cn1c(-c2ccc(S(C)(=O)=O)cc2)nc2cc(C3CCN(C4CC5CCC(C4)N5C4CCC4)CC3)cc(F)c21` (single isomer, unassigned) [Example 215, 5-(1-(8-cyclobutyl-8-azabicyclo[3.2.1]octan-3-yl)piperidin-4-yl)-7-fluoro-1-methyl-2-(4-(methylsulfonyl)phenyl)-1H-benzo[d]imidazole], for which the IC50 against human TLR9 was 70 nM; at human TLR9 (setting [1]), 70 nM; on human TLR7, 17000 nM; at human TLR8 it was more than 50000 nM.
For `Cn1c(-c2ccc(S(C)(=O)=O)cc2)nc2cc(C3CCN(C4CC5CCC(C4)N5C4CCC4)CC3)cc(F)c21` (single isomer, unassigned) [Example 216, 5-(1-(8-cyclobutyl-8-azabicyclo[3.2.1]octan-3-yl)piperidin-4-yl)-7-fluoro-1-methyl-2-(4-(methylsulfonyl)phenyl)-1H-benzo[d]imidazole], the IC50 on human TLR9 is 270 nM; on human TLR9 (setting [1]), 269 nM; on human TLR7, 23200 nM; at human TLR8, more than 50000 nM.
